# Test system: HeLa
# Test: Protein binding in human HeLa cells at 1 mM incubated for 10 mins under dark by fluorescence microscopic analysis
# Type: ADME, cell-based
# Settings: 1000 µM; call rule not given here
row,PB,Structure (SMILES)
1,Active,CCN1c2ccc3oc(=O)ccc3c2C(=O)CC1(C)C
2,Not Active,Cn1c(=O)ccc2c3c(ccc21)NC(C)(C)CC3=O
3,Active,CN1c2ccc3c(ccc(=O)n3C)c2C(=O)CC1(C)C
4,Active,CCN1c2ccc3c(ccc(=O)n3C)c2C(=O)CC1(C)C
5,Active,CCn1c(=O)ccc2c3c(ccc21)NC(C)(C)CC3=O
6,Active,CCn1c(=O)ccc2c3c(ccc21)N(C)C(C)(C)CC3=O
7,Active,CCN1c2ccc3c(ccc(=O)n3CC)c2C(=O)CC1(C)C
8,Active,CC1(C)CC(=O)c2c(ccc3oc(=O)ccc23)N1
9,Not Active,CN1c2ccc3oc(=O)ccc3c2C(=O)CC1(C)C

# Source: ChEMBL document CHEMBL3102737, “Synthesis of novel pyrano[3,2-f]quinoline, phenanthroline derivatives and studies of their interactions with proteins: an application in mammalian cell imaging” (Eur J Med Chem, 2014)
